Key:
[1] = tested on: pRB in OVCAR3 cells; assay: pRB ICW Assay in OVCAR3 Cells; assay type: cell-based; conditions: Homo sapiens, OVCAR-3, incubated with compound for 2 hours, read-out: OVCAR3 p-RB ICW IC50
How it was run: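 OVCAR3 cells seeded overnight, then exposed for 2 h at 37 °C to a 9-point half-log compound dilution series in duplicate; 10 μM reference compound defined maximum inhibition. Fixed, permeabilised cells stained in-cell western style with anti-phospho-RB antibody plus DRAQ5 nuclear stain; fluorescence read at 700 and 800 nm.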

[2] = target: T1, CDK4/Cyclin D1 (Homo sapiens, UniProt P11802); assay: CDK4/CyclinD1 Enzymatic Activity Assay (TR-FRET); assay type: biochemical; conditions: CDK4/CyclinD1 1 nM, ATP 2 mM, read-out: CDK4_D1 IC50
T1 construct: purchased ProQinase; host or cells: insect cell
How it was run: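 Insect-cell-expressed CDK4/Cyclin D1 (1 nM) phosphorylated ULight-4E-BP1 (100 nM) with 2 mM ATP in HEPES pH 7.4 buffer with TCEP, after 20 min compound preincubation; 10 mM MgCl2 started the reaction, run 45 min at 37 °C. EDTA/Eu-anti-phospho-4E-BP1 TR-FRET readout; 9-point IC50 by four-parameter fit.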

[3] = target: CDK2/Cyclin E2 (Homo sapiens, UniProt P24941); assay: CDK2/CyclinE2 Enzymatic Activity Assay (TR-FRET); assay type: biochemical; conditions: CDK2/CyclinE2 1 nM, ATP 1 mM, read-out: CDK2_El IC50
How it was run: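 TR-FRET kinase assay with insect-cell CDK2/Cyclin E2 (1 nM) phosphorylating ULight-4E-BP1 (50 nM) at 1 mM ATP in HEPES pH 7.4 buffer; 9-dose 3-fold series preincubated 20 min, reaction started with 10 mM MgCl2, 45 min at 37 °C. EDTA quench, Eu-anti-P-4E-BP1 detection; IC50 from 4-parameter fit.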

T1 sequence (P11802 whole entry): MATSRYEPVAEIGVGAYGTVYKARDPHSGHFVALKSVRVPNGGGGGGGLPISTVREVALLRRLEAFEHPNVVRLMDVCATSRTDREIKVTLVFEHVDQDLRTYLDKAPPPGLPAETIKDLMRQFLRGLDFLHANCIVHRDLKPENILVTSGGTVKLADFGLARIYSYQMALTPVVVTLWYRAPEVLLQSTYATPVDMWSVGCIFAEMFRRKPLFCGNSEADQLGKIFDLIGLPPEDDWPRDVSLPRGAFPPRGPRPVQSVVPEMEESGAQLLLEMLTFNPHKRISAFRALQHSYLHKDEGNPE
T1 sequence (P24385 whole entry partner): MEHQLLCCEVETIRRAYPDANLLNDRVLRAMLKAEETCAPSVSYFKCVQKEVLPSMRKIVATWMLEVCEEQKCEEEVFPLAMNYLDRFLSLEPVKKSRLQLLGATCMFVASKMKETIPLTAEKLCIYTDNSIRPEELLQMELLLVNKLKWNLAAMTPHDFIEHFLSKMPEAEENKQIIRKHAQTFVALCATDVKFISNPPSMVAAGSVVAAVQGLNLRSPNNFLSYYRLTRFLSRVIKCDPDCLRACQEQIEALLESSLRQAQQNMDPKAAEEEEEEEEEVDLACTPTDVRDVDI

Compound | IC50 [1] [nM] | IC50 [2] [nM] | IC50 [3] [nM]
CS(=O)(=O)N1CCC(Nc2ncc(C(F)(F)F)c(-c3cc4c(s3)C3(CO)CCCN3C4=O)n2)CC1 (stereo not drawn) [Example 17, 8a-(Hydroxymethyl)-2-(2-((1-(methylsulfonyl)piperidin-4-yl)amino)-5-(trifluoromethyl)pyrimidin-4-yl)-6,7,8,8a-tetrahydro-4H-thieno[2,3-a]pyrrolizin-4-one] | 100 to 500 | ≤ 100 | ≤ 100
CC(C)C12CCOCCN1C(=O)c1cc(-c3nc(NC4CCN(S(C)(=O)=O)CC4)ncc3C(F)(F)F)sc12 (stereo not drawn) [Example 10, 10a-Isopropyl-2-(2-((1-(methylsulfonyl)piperidin-4-yl)amino)-5-(trifluoro-methyl)pyrimidin-4-yl)-6,7,10,10a-tetrahydrothieno[2′,3′:3,4]pyrrolo[1,2-d][1,4]oxazepin-4(9H)-one] | 100 to 500 | ≤ 100 | ≤ 100
CC12CCCCN1C(=O)c1cc(-c3nc(NC4CCN(S(C)(=O)=O)CC4)ncc3F)sc12 (stereo not drawn) [Example 6, 2-(5-Fluoro-2-((1-(methylsulfonyl)piperidin-4-yl)amino)pyrimidin-4-yl)-9a-methyl-7,8,9,9a-tetrahydrothieno[2,3-a]indolizin-4(6H)-one] | ≤ 100 | ≤ 100 | ≤ 100
CS(=O)(=O)N1CCC(Nc2ncc(C(F)(F)F)c(-c3cc4c(s3)C3(CF)CCCN3C4=O)n2)CC1 (stereo not drawn) [Example 18, 8a-(Fluoromethyl)-2-(2-((1-(methylsulfonyl)piperidin-4-yl)amino)-5-(trifluoromethyl)pyrimidin-4-yl)-6,7,8,8a-tetrahydro-4H-thieno[2,3-a]pyrrolizin-4-one] | 100 to 500 | ≤ 100 | ≤ 100

Other lines, results leading:

IC50 [1] [nM] | IC50 [2] [nM] | IC50 [3] [nM] | Compound
≤ 100 | ≤ 100 | ≤ 100 | CCC12CC(F)(F)CN1C(=O)c1cc(-c3nc(NC4CCN(S(C)(=O)=O)CC4)ncc3C(F)(F)F)sc12 (stereo not drawn) [Example 32, 8a-Ethyl-7,7-difluoro-2-(2-((1-(methylsulfonyl)piperidin-4-yl)amino)-5-(trifluoromethyl)pyrimidin-4-yl)-6,7,8,8a-tetrahydro-4H-thieno[2,3-a]pyrrolizin-4-one]
100 to 500 | ≤ 100 | ≤ 100 | CS(=O)(=O)N1CCC(Nc2ncc(C(F)(F)F)c(-c3cc4c(s3)C3(C5CC(F)C5)CCCN3C4=O)n2)CC1 (stereo not drawn) [Example 26, 8a-(3-Fluorocyclobutyl)-2-(2-((1-(methylsulfonyl)piperidin-4-yl)amino)-5-(trifluoromethyl)pyrimidin-4-yl)-6,7,8,8a-tetrahydro-4H-thieno[2,3-a]pyrrolizin-4-one]
